According to US20090264402A1, “NOVEL DIPHENYLAZETIDINONE SUBSTITUTED BY PIPERAZINE-1-SULFONIC ACID AND HAVING IMPROVED PHARMACOLOGICAL PROPERTIES” (SANOFI-AVENTIS DEUTSCHLAND GMBH, priority 2006, published 2009):

Tested on: uptake of 14C-cholesterol in the liver
Experiment: Cholesterol absorption test (14C-cholesterol uptake in the liver) in NMRI mice
Type: in vivo
Protocol: The compound of the invention of the formula I (ammonium salt) was tested for its effect using the method described below:
NMRI mice (in groups of n=4-6) are kept with a standard diet (altromin, lage (lippe)) in metabolism cages. The animals are fasted from the afternoon before administration of the radioactive tracer (^14C-cholesterol) and adapted to wire grids.
In addition, the animals are labeled with ^3H-TCA (taurocholic acid) s.c. 24 hours before the oral administration of the test meal (^14C-cholesterol in Intralipid® 20, Pharmacia-Upjohn) (e.g. 1 μCi/mouse to 5 μCi/rat).
Cholesterol absorption test: 0.25 ml/mouse Intralipid® 20 (Pharmacia-Upjohn) (spiking with 0.25 μCi ^14C-cholesterol in 0.1 mg of cholesterol) is administered orally by gavage.
Test substances are made up separately in 0.5%/(methylcellulose (Sigma)/5% Solutol (BASF, Ludwigshafen) or a suitable vehicle.
The volume for administration of the test substance is 0.5 ml/mouse. The test substance is administered immediately before the test meal (Intralipid with ^14C-cholesterol label) (cholesterol absorption test).
The livers are removed, homogenized and combusted in aliquots in an oximate (model 307, Packard) to determine the amount of ^14C-cholesterol taken up/absorbed.
The amount of ^14C-cholesterol taken up in the liver is related to the dose administered. […]

| Compound | activity relative to comparison compound LVIII from WO 2004/000804 (times better) (ratio of ED50 (liver) values) [times] | ED50 (liver) (NMRI mice, oral, test substance given immediately before 14C-cholesterol test meal, dose which halves uptake of 14C-cholesterol in the liver relative to control) [mg/mouse] |
| --- | --- | --- |
| O=C(Oc1ccc([C@@H]2[C@@H](CC[C@H](O)c3ccc(F)cc3)C(=O)N2c2ccc(F)cc2)c(F)c1)N1CCN(S(=O)(=O)O)CC1 [I] | 10 | – |
| N.O=C(Oc1ccc([C@@H]2[C@@H](CC[C@H](O)c3ccc(F)cc3)C(=O)N2c2ccc(F)cc2)c(F)c1)N1CCN(S(=O)(=O)O)CC1 [I (ammonium salt), Ammonium 4-(3-fluoro-4-{(2S,3R)-1-(4-fluorophenyl)-3-[(S)-3-(4-fluoro-phenyl)-3-hydroxylpropyl]-4-oxoazetidin-2-yl}phenoxycarbonyl)piperazine-1-sulfonate] | – | 0.01 |
